Experimental data taken from patent US20230104692A1, “DMEU ENHANCER” (priority 2020, published 2023).

What was measured:
[1] = loading concentration of saturated active ingredient solution in penetration accelerator; type: physicochemical; details: for loading concentration in dimethyl isosorbide: dimethyl isosorbide as penetration accelerator; for loading concentration of saturated solution in DMEU: donor volume 150 μl
Method: The following test series with the various penetration accelerators and for the selected active ingredients were carried out in the context of a typical in vitro permeation using Franz diffusion cells. The used acceptor medium was replaced completely for a new one at predetermined replacement times, and the content of permeated active ingredient amount in these acceptor solutions was determined by means of HPLC.

[2] = in words; cited from earlier work

loading concentration in dimethyl isosorbide [1] [mg/cm^2] | loading concentration of saturated solution in DMEU [1] [mg/cm^2] | loading concentration in dipropylene glycol ([1]; dipropylene glycol as penetration accelerator) [mg/cm^2] | SMILES | water solubility [2]
1.29 | 12.75 |  | COc1cc(/C=C/C(=O)CC(=O)/C=C/c2ccc(O)c(OC)c2)ccc1O [Curcumin] | almost insoluble in water
 |  |  | CCOC(=O)C1=C(C)NC(C)=C(C(=O)OC)C1c1cccc(Cl)c1Cl (stereo not drawn) [Felodipine] | almost insoluble in water
 |  |  | Cc1cc2c(s1)Nc1ccccc1N=C2N1CCN(C)CC1 [Olanzapine] | almost insoluble in water
6.4 | 27.7 | 2.1 | CC(=O)[C@H]1CC[C@H]2[C@@H]3CCC4=CC(=O)CC[C@]4(C)[C@H]3CC[C@]12C [Progesterone] | almost insoluble in water
